Measurements as given in patent EP4813979A1, “COMPOUND FOR EGFR PROTEIN DEGRADATION AND USE THEREOF” (TYK Medicines, Inc., priority 2023, dated 2025).
pIC50: −log10 of the molar value. Read-outs that look alike come from different tables or passages of the source.

What was measured:
[1] = target: EGFR in Baf3-19del-T790M-C797S (Homo sapiens, UniProt P00533, C797S/DEL746-750/T790M); experiment: EGFR PROTAC HTRF experiment (total EGFR degradation); assay type: cell-based
Method: (§1) [table] Among them, B[…] -C797S (abbreviated as Baf3-DTC) is a stable Ba/F3 clone expressing exogenous EGFR gene bearing T790M, C797S and […] triple amino acid mutations, purchased from KYinno; Baf3-L858R-T790M - C797S (abbreviated as Baf3-LTC) is a stable Ba/F3 clone expressing exogenous EGFR gene bearing […], T790M, C797S triple mutations, purchased from KYinno. [table] [table] Dilutded Eu and d2 antibodies 2μl per well with detection buffer 20-fold. Then mixed the two antibody vials thoroughly. [table] Opened EnVision , locate the HTRF program, configured the board, and then read […]. The fitted curve, DC50 and Dmax of this compound could be generated using GraphPad Prism .

[2] = target: EGFR in Baf3-L858R-T790M-C797S (Homo sapiens, UniProt P00533, C797S/L858R/T790M); experiment: as above; assay type: cell-based
Sequence of EGFR in Baf3-L858R-T790M-C797S (P00533 25-1210 T790M/C797S/L858R): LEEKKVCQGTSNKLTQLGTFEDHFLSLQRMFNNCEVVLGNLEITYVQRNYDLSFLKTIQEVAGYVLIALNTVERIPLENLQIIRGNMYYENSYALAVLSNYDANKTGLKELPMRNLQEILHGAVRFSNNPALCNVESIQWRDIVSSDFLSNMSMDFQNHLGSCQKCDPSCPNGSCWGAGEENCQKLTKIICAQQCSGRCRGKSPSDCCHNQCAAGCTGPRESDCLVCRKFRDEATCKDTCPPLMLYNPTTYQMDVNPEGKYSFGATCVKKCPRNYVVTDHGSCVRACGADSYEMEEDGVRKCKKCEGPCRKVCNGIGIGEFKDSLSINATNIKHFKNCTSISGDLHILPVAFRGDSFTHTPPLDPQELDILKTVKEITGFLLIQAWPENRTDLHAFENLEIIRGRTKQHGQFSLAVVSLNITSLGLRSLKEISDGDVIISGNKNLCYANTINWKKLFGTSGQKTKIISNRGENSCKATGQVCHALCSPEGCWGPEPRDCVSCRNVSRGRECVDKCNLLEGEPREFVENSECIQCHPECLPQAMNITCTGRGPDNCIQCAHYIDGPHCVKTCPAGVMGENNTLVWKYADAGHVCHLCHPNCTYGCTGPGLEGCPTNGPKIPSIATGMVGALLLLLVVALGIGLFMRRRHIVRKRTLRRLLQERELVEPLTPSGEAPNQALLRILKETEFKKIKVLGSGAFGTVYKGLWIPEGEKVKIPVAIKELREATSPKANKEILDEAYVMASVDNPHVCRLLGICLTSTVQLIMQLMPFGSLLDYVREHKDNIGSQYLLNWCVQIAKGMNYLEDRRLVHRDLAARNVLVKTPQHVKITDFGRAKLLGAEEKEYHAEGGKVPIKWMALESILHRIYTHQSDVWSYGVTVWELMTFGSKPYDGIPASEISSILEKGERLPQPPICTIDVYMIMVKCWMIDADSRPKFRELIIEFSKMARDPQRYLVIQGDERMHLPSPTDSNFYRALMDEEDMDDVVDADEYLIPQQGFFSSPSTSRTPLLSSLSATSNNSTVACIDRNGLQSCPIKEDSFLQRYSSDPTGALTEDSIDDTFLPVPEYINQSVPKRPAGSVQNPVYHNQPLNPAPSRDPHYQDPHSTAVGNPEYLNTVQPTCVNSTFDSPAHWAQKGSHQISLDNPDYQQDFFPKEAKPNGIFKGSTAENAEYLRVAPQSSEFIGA
Method: as §1

[3] = Pharmacokinetic test of CD-1 mice; assay type: in vivo; parameters: AUC(0-t) / AUC(0-inf): concentration or dose not given beside the values; settings: male CD-1 mice, single oral gavage (PO), plasma; for AUC(0-inf) / AUC(0-t) / Cmax / MRT last / Tmax: mouse
Method: Plasma was collected from male CD-1 mice after a single gavage administration of the test substance. The plasma was then analyzed to calculate pharmacokinetic parameters.
The solvent is 5% DMSO + 10% Solutol HS-15 + 85% Saline.
Formulation preparation process: Accurately weighed the compound powder, added appropriate volumes of DMSO, Solutol and physiological saline in sequence, and vortexed sonicate at each step to finally form a homogeneous formulation solution.
Experimental animals were housed in the SPF-grade animal facility of Suzhou Xihua New Drug Development Co., Ltd. (License No.: SYXK(Su)2021-0019). Animals were fed normally for at least 3 days after purchase before the experiment, and each mouse was marked with a tail tag. Animals in the oral administration group were fasted overnight the day before administration, and were resumed feeding 4 hours later, with free access to water. Table 4. Sources and Number of Experimental Animals […]
Before administration, checked the state of the administration formulation and ensured its homogeneity by vortexing, stirring or shaking. Calculated the theoretical administration volume for each CD-1 mouse in each group according to the following formula. Theoretical administration volume (mL); = (Dose (mg⋅kg^−1))/(formulation concentration (mg⋅mL^−1)) × animal body weight (kg) [formula]
Table 5 Sample Collection Information
The collected blood was placed in test tubes containing the anticoagulant EDTA-K2 (15 % EDTA-K2 solution), stored on moist ice, and centrifuged within 45 min (1,500 g, 2-8 °C, 10 min). Plasma was then collected. The plasma was stored in pre-chilled centrifuge tubes, flash-frozen on dry ice, and subsequently stored in an ultra-low temperature freezer at -60 °C or lower until shipment.
A quantitative detection method for the analyte was established using Shimadzu liquid chromatography and Triple Quad™ 6500+AB mass spectrometry. The concentration of the parent drug in plasma was analyzed. The analytical results were controlled for variation using quality control samples, with the accuracy of the quality control samples expected to be between 80% and 120%.
The main pharmacokinetic parameters were calculated using a non-compartmental model in Winnonlin Phoenix software. These parameters included the area under the curve (AUC(0-t) and AUC(0-∞)), elimination half-life (T1/2), maximum plasma concentration (Cmax ), and time to reach maximum plasma concentration (Tmax).

PC-9 = experiment: Cell anti-proliferation experiment (CTG); assay type: cell-based; settings: Homo sapiens, PC-9 (EGFR exon 19 deletion), class symbol
In short: (§2)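 Cells were seeded at 1500–2500/well and dosed after ~24 h with compound in a 1:4 dilution series up to 10,000 nM, in triplicate. Viability was read by CTG luminescence after 72 h, normalized to the 0.1% DMSO control and medium blank, and IC50 was obtained by curve fitting.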

A431 = experiment: Cell anti-proliferation experiment (CTG); assay type: cell-based; settings: Homo sapiens, A431 (wild-type EGFR), class symbol
In short: as §2

A549 = experiment: Cell anti-proliferation experiment (CTG); assay type: cell-based; settings: Homo sapiens, A549 (wild-type EGFR), class symbol
In short: as §2

HCC827 = experiment: Cell anti-proliferation experiment (CTG); assay type: cell-based; settings: Homo sapiens, HCC827 (exon 19 deletion), class symbol
In short: as §2

H1975 = experiment: Cell anti-proliferation experiment (CTG); assay type: cell-based; settings: Homo sapiens, H1975 (EGFR T790M/L858R), class symbol
In short: as §2

[4] = test system: Baf3-19del- T790M -C797S (Baf3-DTC); experiment: Cell anti-proliferation experiment (CTG); assay type: cell-based; settings: class symbol
In short: as §2

[5] = test system: Baf3-L858R-T790M - C797S (Baf3-LTC); experiment: Cell anti-proliferation experiment (CTG); assay type: cell-based; settings: class symbol
In short: as §2

[6] = Pharmacokinetic tests in male SD rats; assay type: in vivo; settings: oral gavage (po), 10 mg/kg, plasma; for AUC(0-inf) / AUC(0-t) / Cmax / MRT last / Tmax: rat
In short: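 Fasted male SD rats (n=3) dosed 10 mg/kg by oral gavage as 1 mg/mL solution in 10% DMSO/90% 0.5% MC. Tail-vein EDTA plasma sampled 0.5–24 h, parent drug quantified by LC-MS/MS; AUC, T1/2, Cmax, Tmax by non-compartmental analysis.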

[7] = read-out: Baf3-DTC DC50; Baf3-DTC, incubated 16 hours, HTRF total EGFR
[8] = read-out: Baf3-LTC DC50; Baf3-LTC, incubated 16 hours, HTRF total EGFR
[9] = Baf3-DTC, incubated 16 hours, HTRF total EGFR; read-out: Baf3-DTC DC50
[10] = Baf3-DTC, incubated 16 hours, HTRF total EGFR; read-out: Baf3-DTC Dmax
[11] = Baf3-LTC, incubated 16 hours, HTRF total EGFR; read-out: Baf3-LTC DC50
[12] = Baf3-LTC, incubated 16 hours, HTRF total EGFR; read-out: Baf3-LTC Dmax

Sequence of EGFR in Baf3-19del-T790M-C797S (P00533 with tags, fused parts or gaps DEL746-750/T790M/C797S): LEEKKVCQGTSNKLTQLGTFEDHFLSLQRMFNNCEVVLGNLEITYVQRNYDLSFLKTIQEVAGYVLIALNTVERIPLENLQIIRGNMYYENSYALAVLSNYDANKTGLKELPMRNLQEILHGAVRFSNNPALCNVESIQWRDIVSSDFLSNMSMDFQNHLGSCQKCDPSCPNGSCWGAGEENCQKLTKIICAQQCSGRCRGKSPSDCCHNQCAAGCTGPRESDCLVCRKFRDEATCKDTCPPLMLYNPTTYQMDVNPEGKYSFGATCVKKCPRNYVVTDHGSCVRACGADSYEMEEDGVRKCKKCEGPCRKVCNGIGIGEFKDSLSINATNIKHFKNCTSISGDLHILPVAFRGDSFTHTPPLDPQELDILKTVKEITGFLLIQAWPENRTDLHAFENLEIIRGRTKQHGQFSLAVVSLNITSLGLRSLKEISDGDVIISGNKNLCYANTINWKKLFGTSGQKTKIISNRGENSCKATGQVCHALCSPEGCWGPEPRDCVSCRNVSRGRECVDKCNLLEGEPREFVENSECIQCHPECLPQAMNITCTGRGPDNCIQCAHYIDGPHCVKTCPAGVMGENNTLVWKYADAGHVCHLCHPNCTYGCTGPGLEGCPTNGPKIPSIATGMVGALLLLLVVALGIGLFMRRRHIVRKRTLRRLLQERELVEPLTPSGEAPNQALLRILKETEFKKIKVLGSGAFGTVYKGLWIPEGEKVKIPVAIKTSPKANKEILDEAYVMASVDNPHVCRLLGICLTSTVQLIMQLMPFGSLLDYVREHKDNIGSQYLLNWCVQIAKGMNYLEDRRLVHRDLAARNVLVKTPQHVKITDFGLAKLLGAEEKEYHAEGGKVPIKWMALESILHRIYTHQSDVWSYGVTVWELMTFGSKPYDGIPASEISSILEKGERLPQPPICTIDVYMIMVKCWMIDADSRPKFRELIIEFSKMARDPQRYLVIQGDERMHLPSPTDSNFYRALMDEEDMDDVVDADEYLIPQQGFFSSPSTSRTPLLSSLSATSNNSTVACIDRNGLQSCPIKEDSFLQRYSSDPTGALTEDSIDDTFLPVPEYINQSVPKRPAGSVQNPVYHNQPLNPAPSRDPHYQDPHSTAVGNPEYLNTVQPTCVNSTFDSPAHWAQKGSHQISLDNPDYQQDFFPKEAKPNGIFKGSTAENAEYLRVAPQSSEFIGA

Compound	DC50 [1, 7]	Dmax ([1]; read-out: Baf3-DTC Dmax)	DC50 [2, 8]	Dmax ([2]; read-out: Baf3-LTC Dmax)	HL_ [3]	AUC(0-inf) [3]	AUC(0-t) [3]	Cmax [3]	MRT last [3]	Tmax [3]	pIC50 (PC-9; 72 hours)	pIC50 (A431; A-431, 72 hours)	pIC50 (A549; 72 hours)	pIC50 (HCC827; 72 hours)	pIC50 (H1975; NCI-H1975, 72 hours)	DC50 [1, 9]	Dmax [1, 10]	DC50 [2, 11]	Dmax [2, 12]	pIC50 ([4]; 72 h)	other results
CCc1cc(Nc2ncc(Cl)c(Nc3ccccc3C(=O)NC)n2)c(OC)cc1N1CCN(C(=O)CN2CCC(c3ccc4c(N5CCC(=O)NC5=O)nn(C)c4c3)C(F)(F)C2)CC1 (stereo not shown) [Comparative Example 1-1, reference compound]	10 to 100 nM	70 to 100%	10 to 100 nM	70 to 100%	2.41 h	14300 ng·h/mL	14300 ng·h/mL	1740 ng/mL	6.06 h	2 h	6.00 to 7.00	6.00 to 7.00	7.00 to 8.00	6.00 to 7.00	7.00 to 8.00						
CCc1cc(Nc2ncc(Br)c(Nc3ccccc3C(=O)NC)n2)c(OC)cc1N1CCN(C(=O)CN2CCC(c3cc4c(cc3F)c(N3CCC(=O)NC3=O)nn4C)C(F)(F)C2)CC1 (stereo not shown) [TA-004]					2.67 h	28800 ng·h/mL	28800 ng·h/mL	3170 ng/mL	6.01 h	2 h						100 to 1000 nM	70 to 100%	100 to 1000 nM	70 to 100%	7.00 to 8.00	pIC50 (PC-9; PC-9, 72 h): < 6.00; pIC50 (A431; A-431, 72 h): < 6.00; pIC50 (A549; A549, 72 h): < 6.00; pIC50 (HCC827; HCC827, 72 h): < 6.00; pIC50 (H1975; NCI-H1975, 72 h): 7.00 to 8.00; pIC50 ([5]; 72 h): 7.00 to 8.00
CCc1cc(Nc2ncc(Cl)c(Nc3ccccc3P(C)(C)=O)n2)c(OC)cc1N1CCN(C(=O)CN2CCC(c3cc4c(cc3F)c(N3CCC(=O)NC3=O)nn4C)C(F)(F)C2)CC1 (stereo not shown) [TA-005]					2.28 h	36300 ng·h/mL	36300 ng·h/mL	5970 ng/mL	4.59 h	1 h											
CCc1cc(Nc2ncc(Br)c(Nc3ccccc3P3(=O)CCCC3)n2)c(OC)cc1N1CC2(CCN(C(=O)CN3CCC(c4cc5c(cc4F)c(N4CCC(=O)NC4=O)nn5C)C(F)(F)C3)CC2(F)F)C1 (stereo not shown) [TB-010]																< 10 nM	70 to 100%	< 10 nM	70 to 100%	7.00 to 8.00	pIC50 (PC-9; PC-9, 72 h): 6.00 to 7.00; pIC50 (A431; A-431, 72 h): < 6.00; pIC50 (A549; A549, 72 h): < 6.00; pIC50 (HCC827; HCC827, 72 h): 7.00 to 8.00; pIC50 (H1975; NCI-H1975, 72 h): > 8.00; pIC50 ([5]; 72 h): 7.00 to 8.00; HL [6]: 3.59 h; AUC(0-inf) [6]: 5800 ng·h/mL; AUC(0-t) [6]: 5730 ng·h/mL; Cmax [6]: 482 ng/mL; MRT last [6]: 6.6 h; Tmax [6]: 4 h
CCc1cc(Nc2ncc(Br)c(Nc3ccccc3P(C)(C)=O)n2)c(OC)cc1N1CCN(C(=O)CN2CCC(c3cc4c(cc3F)c(N3CCC(=O)NC3=O)nn4C)C(F)(F)C2)CC1 (stereo not shown) [TC-158]	< 10 nM	70 to 100%	< 10 nM	70 to 100%							6.00 to 7.00	< 6.00	< 6.00	6.00 to 7.00	7.00 to 8.00						pIC50 ([4]; 72 hours): > 8.00; pIC50 ([5]; 72 hours): > 8.00; HL [6]: 2.81 h; AUC(0-inf) [6]: 5610 ng·h/mL; AUC(0-t) [6]: 5590 ng·h/mL; Cmax [6]: 533 ng/mL; MRT last [6]: 6.02 h; Tmax [6]: 2.67 h
CCc1cc(Nc2ncc(Br)c(Nc3ccccc3P(C)(C)=O)n2)c(OC)cc1N1CC2(CCN(C(=O)CN3CCC(c4cc5c(cc4F)c(N4CCC(=O)NC4=O)nn5C)C(F)(F)C3)CC2)C1 (stereo not shown) [TC-164]	< 10 nM	70 to 100%	< 10 nM	70 to 100%							6.00 to 7.00	< 6.00	< 6.00	7.00 to 8.00	> 8.00						pIC50 ([4]; 72 hours): > 8.00; pIC50 ([5]; 72 hours): > 8.00
CCc1cc(Nc2ncc(Cl)c(Nc3ccccc3C(=O)NC)n2)c(OC)cc1N1CCN(CCN2CCC(c3cc4c(cc3F)c(N3CCC(=O)NC3=O)nn4C)CC2)CC1 [TD-001]																100 to 1000 nM	50 to 70%	10 to 100 nM	50 to 70%	7.00 to 8.00	pIC50 (PC-9; PC-9, 72 h): 6.00 to 7.00; pIC50 (A431; A-431, 72 h): < 6.00; pIC50 (A549; A549, 72 h): 7.00 to 8.00; pIC50 (HCC827; HCC827, 72 h): > 8.00; pIC50 (H1975; NCI-H1975, 72 h): > 8.00; pIC50 ([5]; 72 h): 7.00 to 8.00
